# Experimental data taken from patent US12357598B2, “Treatment of neurodevelopmental disorders” (THE REGENTS OF THE UNIVERSITY OF CALIFORNIA, priority 2018, dated 2025).
# Key:
# Type in all cases: in vivo, mouse
# [1] = system: ddY mice; experiment: Oxylipin profiling of brain regions of juvenile offspring after prenatal poly(I:C) (MIA); details: juvenile offspring (P28) after prenatal poly(I:C)
# Protocol: Administration of poly(I:C) into pregnant mice. The schedule of poly(I:C) treatment was performed as reported previously (13,36-39). The pregnant mice were injected intraperitoneally (i.p.) for six consecutive days from E12 to E17 with poly(I:C) (5.0 mg/kg/day, Sigma-Aldrich Co. Ltd., St. Louis, MO, USA) dissolved in physiological saline, or an equivalent volume (5 ml/kg) of saline. The male offspring were separated from their mothers at wearing (P21), and mice were caged each three-five in the groups in clear polycarbonate cage (22.5×33.8×14.0 cm). Mice were housed under controlled temperatures and 12-hour light/dark cycles (lights on between 07:00-19:00 h), with ad libitum food and water.
# Collection of brain samples and oxylipin profiling. The pregnant mice were injected i.p. with poly(I:C) (5.0 mg/kg/day for 6 days from E12 to E17) or saline, as described above. The male offspring were separated from their mothers at wearing (P21). On P28, mice were deeply anesthetized with isoflurane and brains were removed from the skulls. For Western blot analysis, brain regions such as prefrontal cortex (PFC), striatum, CA1, CA3 and dentate gyrus (DG) of the hippocampus were dissected from brain on ice using a Leica microscope S9E (Leica Microsystems, Tokyo, Japan). The samples were stored at −80° C. before assay. For oxylipin analysis, PFC, hippocampus, and cerebellum were dissected from brain on ice, and the samples were stored at −80° C. before assay. Measurement of eicosanoids was performed at UC Davis using the previous method (57).
# [2] = Measurement of glyphosate in the blood (LC/MS/MS); details: mothers treated with 0.095% glyphosate E5-P21 and their offspring
# Protocol: Measurement of glyphosate in the blood. Water or 0.095% glyphosate was given to pregnant mice from E5 to P21, as described above. At weaning (P21), mothers and male offspring mice were deeply anesthetized with isoflurane and plasma was collected. The plasma samples were stored at −80° C. before assay. Measurement of glyphosate in the plasma was performed using LC/MS/MS at UC Davis.
# The 40 μL of internal standard (2 μg/mL of glyphosate-2-^13C solution in methanol) and 40 μL of methanol were added to 20 μL of plasma. The spiked sample was vortexed for 5 minutes and then centrifuged at […] for another 5 minutes. The supernatants were transferred for the followed LC/MS/MS measurement, which uses Waters Acquity UPLC system (Waters, Milford, MA) interfaced with a QTRAP 6500+ mass spectrometer (Sciex, Redwood City, CA) using electrospray source. The separation was achieved on a Waters Acquity BEH C18 50×2.1 mm 1.7 μm column with mobile phases of water with 0.1% of formic acid as mobile phase A and acetonitrile with 0.1% of formic acid as mobile phase B. The gradient was shown in Table 10. All the parameters on the mass spectrometer were optimized with pure standards of glyphosate and glyphosate-2-^13C (purchased from Millipore Sigma, Burlington MA) under positive MRM mode.
# [3] = system: Ephx2 mRNA; experiment: Quantitative RT-PCR of Ephx2 mRNA after maternal glyphosate exposure; details: juvenile offspring (P28) after maternal glyphosate exposure vs water
# Excerpt: Gene expression analysis by quantitative real-time PCR. At juvenile (P28) stage, mice were sacrificed, and their brains were removed for measurement of gene expression of Ephx2 mRNA. Brain regions such as PFC, hippocampus, and striatum were dissected from brain on ice. A quantitative RT-PCR system (Step One Plus, Thermo Fisher Scientific, Yokohama, Japan) was used to measure mRNAs. The specific mRNA transcripts were quantified by TaqManGene Expression assays (Thermo Fisher Scientific, Yokohama, Japan). Expression levels of Ephx2 (Mm01313813_m1) was measured in brain tissue. Total RNA was extracted by use of an RNeasy Mini Kit (Qiagen, Hilden, Germany). The purity of total RNA was assessed by Biophotometer plus (Eppendorf, Hamburg, Germany). The RNA samples were used in the first strand cDNA synthesis with High Capacity cDNA Reverse Transcription Kit (#4368813 Thermo Fisher Scientific, Yokohama, Japan). All samples were tested in triplicate and average values were used for quantification. The average values were normalized to Vic-labeled Actb mRNA (Cat #4352341E: pre-developed TaqMan Assay Reagents, Thermo Fisher Scientific, Yokohama, Japan).
compound,measurement,setting,value
polyriboinosinic-polyribocytidilic acid [Poly(I:C)],5(6)-EpETrE level,[1]; PFC,222.07 ± 22.38 pmol/g tissue
same,6-keto-PGF1α level,[1]; PFC,22.088 ± 1.785 pmol/g tissue
same,8(9)-EpETrE level,[1]; PFC,6.725 ± 0.892 pmol/g tissue
same,9(10)-EpOME level,[1]; PFC,2.695 ± 0.424 pmol/g tissue
same,"9,10,13-TriHOME level",[1]; PFC,22.676 ± 3.814 pmol/g tissue
same,"9,10-DiHOME level",[1]; PFC,1.069 ± 0.188 pmol/g tissue
same,"9,12,13-TriHOME level",[1]; PFC,39.728 ± 6.854 pmol/g tissue
same,9-HODE level,[1]; PFC,24.253 ± 3.782 pmol/g tissue
same,9-oxo-ODE level,[1]; PFC,15.032 ± 2.690 pmol/g tissue
same,10(11)-EpDPE level,[1]; PFC,3.698 ± 0.292 pmol/g tissue
same,11(12)-EpETrE level,[1]; PFC,26.639 ± 3.530 pmol/g tissue
same,11-HETE level,[1]; PFC,72.292 ± 5.677 pmol/g tissue
same,12(13)-EpOME level,[1]; PFC,2.934 ± 0.435 pmol/g tissue
same,"12,13-DiHOME level",[1]; PFC,4.640 ± 0.477 pmol/g tissue
same,12-HETE level,[1]; PFC,28.597 ± 2.727 pmol/g tissue
same,13-HODE level,[1]; PFC,31.020 ± 5.237 pmol/g tissue
same,14(15)-EpETrE level,[1]; PFC,30.74 ± 5.605 pmol/g tissue
same,"15,16-DiHODE level",[1]; PFC,2.785 ± 0.414 pmol/g tissue
same,15-HETE level,[1]; PFC,68.997 ± 4.672 pmol/g tissue
same,"19,20-DiHDPE level",[1]; PFC,4.319 ± 0.331 pmol/g tissue
same,EKODE level,[1]; PFC,6.552 ± 1.725 pmol/g tissue
same,PGD2 level,[1]; PFC,147.79 ± 9.748 pmol/g tissue
same,PGE2 level,[1]; PFC,16.359 ± 1.175 pmol/g tissue
same,PGF2a level,[1]; PFC,86.798 ± 6.454 pmol/g tissue
same,Thromboxane B2 level,[1]; PFC,43.922 ± 3.349 pmol/g tissue
same,5(6)-EpETrE level,[1]; cerebellum,174.37 ± 11.71 pmol/g tissue
same,6-keto-PGF1a level,[1]; cerebellum,29.69 ± 1.379 pmol/g tissue
same,8(9)-EpETrE level,[1]; cerebellum,5.453 ± 0.582 pmol/g tissue
same,9(10)-EpOME level,[1]; cerebellum,3.076 ± 0.662 pmol/g tissue
same,"9,10,13-TriHOME level",[1]; cerebellum,20.84 ± 3.099 pmol/g tissue
same,"9,10-DiHOME level",[1]; cerebellum,1.283 ± 0.279 pmol/g tissue
same,"9,12,13-TriHOME level",[1]; cerebellum,37.62 ± 5.925 pmol/g tissue
same,9-HODE level,[1]; cerebellum,23.33 ± 2.571 pmol/g tissue
same,9-oxo-ODE level,[1]; cerebellum,16.56 ± 2.802 pmol/g tissue
same,10(11)-EpDPE level,[1]; cerebellum,6.061 ± 0.717 pmol/g tissue
same,11(12)-EpETrE level,[1]; cerebellum,21.10 ± 1.869 pmol/g tissue
same,12(13)-EpOME level,[1]; cerebellum,2.989 ± 0.423 pmol/g tissue
same,"12,13-DiHOME level",[1]; cerebellum,5.406 ± 0.682 pmol/g tissue
same,13-HODE level,[1]; cerebellum,30.47 ± 4.048 pmol/g tissue
same,14(15)-EpETrE level,[1]; cerebellum,26.63 ± 3.595 pmol/g tissue
same,"15,16-DiHODE level",[1]; cerebellum,2.772 ± 0.423 pmol/g tissue
same,15-HETE level,[1]; cerebellum,36.59 ± 3.256 pmol/g tissue
same,"19,20-DiHDPE level",[1]; cerebellum,9.767 ± 0.858 pmol/g tissue
same,EKODE level,[1]; cerebellum,7.801 ± 1.325 pmol/g tissue
same,PGD2 level,[1]; cerebellum,21.60 ± 1.774 pmol/g tissue
same,PGE2 level,[1]; cerebellum,6.969 ± 0.684 pmol/g tissue
same,PGF2a level,[1]; cerebellum,46.32 ± 3.830 pmol/g tissue
same,TXB2 level,[1]; cerebellum,14.62 ± 0.876 pmol/g tissue
same,12-HETE level,"[1]; cerebellum, first of two lines printed 12-HETE (r21)",34.19 ± 3.215 pmol/g tissue
same,12-HETE level,"[1]; cerebellum, second of two lines printed 12-HETE (r23)",75.46 ± 28.38 pmol/g tissue
same,5(6)-EpETrE level,[1]; hippocampus,333.09 ± 30.68 pmol/g tissue
same,6-keto-PGF1α level,[1]; hippocampus,47.853 ± 3.589 pmol/g tissue
same,8(9)-EpETrE level,[1]; hippocampus,10.53 ± 0.809 pmol/g tissue
same,9(10)-EpOME level,[1]; hippocampus,3.933 ± 0.304 pmol/g tissue
same,"9,10,13-TriHOME level",[1]; hippocampus,31.142 ± 2.301 pmol/g tissue
same,"9,10-DiHOME level",[1]; hippocampus,0.814 ± 0.116 pmol/g tissue
same,"9,12,13-TriHOME level",[1]; hippocampus,54.137 ± 3.954 pmol/g tissue
same,9-HODE level,[1]; hippocampus,34.887 ± 1.969 pmol/g tissue
same,9-oxo-ODE level,[1]; hippocampus,24.50 ± 1.957 pmol/g tissue
same,10(11)-EpDPE level,[1]; hippocampus,6.103 ± 0.347 pmol/g tissue
same,11(12)-EpETrE level,[1]; hippocampus,42.05 ± 3.911 pmol/g tissue
same,11-HETE level,[1]; hippocampus,106.263 ± 6.366 pmol/g tissue
same,12(13)-EpOME level,[1]; hippocampus,4.641 ± 0.393 pmol/g tissue
same,"12,13-DiHOME level",[1]; hippocampus,4.478 ± 0.528 pmol/g tissue
same,12-HETE level,[1]; hippocampus,83.22 ± 12.09 pmol/g tissue
same,13-HODE level,[1]; hippocampus,41.916 ± 2.454 pmol/g tissue
same,14(15)-EpETrE level,[1]; hippocampus,45.020 ± 3.734 pmol/g tissue
same,"15,16-DiHODE level",[1]; hippocampus,2.295 ± 0.364 pmol/g tissue
same,15-HETE level,[1]; hippocampus,100.514 ± 6.210 pmol/g tissue
same,"19,20-DiHDPE level",[1]; hippocampus,4.228 ± 0.321 pmol/g tissue
same,EKODE level,[1]; hippocampus,14.86 ± 0.949 pmol/g tissue
same,PGD2 level,[1]; hippocampus,119.25 ± 8.999 pmol/g tissue
same,PGE2 level,[1]; hippocampus,20.186 ± 1.410 pmol/g tissue
same,PGF2a level,[1]; hippocampus,153.113 ± 10.00 pmol/g tissue
same,Thromboxane B2 level,[1]; hippocampus,65.491 ± 5.906 pmol/g tissue
O=C(O)CNCP(=O)(O)O [glyphosate],blood levels of glyphosate on P21 (weaning),[2],could detect
same,"gene expression of sEH (or Ephx2) mRNA in the PFC, hippocampus, and striatum",[3],significantly higher
